Laboratory results from PubChem BioAssay (NCI).
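In this assay, cells in 96-well plates receive the compound at five concentrations for 48 hours. Endpoints are linearly interpolated between the surrounding concentrations. The concentration for 50% growth inhibition is given as GI50. TGI: concentration producing complete growth inhibition.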

Tests used:
Assay in all cases: NCI tumour cell line growth inhibition, 48 h; in the data active = GI50 below about 0.43 µM; inactive = the rest
[1] = system: T-47D breast
[2] = system: SF-539 CNS
[3] = system: DMS 114 small cell lung
[4] = system: DU-145 prostate
[5] = system: KM20L2 colon
[6] = system: XF 498 CNS
[7] = system: SF-268 CNS
[8] = system: LOX IMVI melanoma
[9] = system: SN12C renal
[10] = system: OVCAR-4 ovarian
[11] = system: RXF 393 renal
[12] = system: NCI-H23 lung
[13] = system: M14 melanoma
[14] = system: DMS 273 small cell lung
[15] = system: A549 NSCLC
[16] = system: K-562 leukemia
[17] = system: NCI-H460 lung
[18] = system: HCT-15 colon
[19] = system: SNB-78 CNS
[20] = system: MDA-N
[21] = system: UACC-257 melanoma
[22] = system: NCI/ADR-RES ovarian
[23] = system: P388/ADR leukemia
[24] = system: A498 renal
[25] = system: COLO 205 colon
[26] = system: OVCAR-3 ovarian
[27] = system: M19-MEL melanoma
[28] = system: EKVX NSCLC
[29] = system: P388 leukemia
[30] = system: SK-MEL-28 melanoma
[31] = system: TK-10 renal
[32] = system: SK-MEL-2 melanoma
[33] = system: OVCAR-8 ovarian
[34] = system: SN12K1 renal
[35] = system: MALME-3M melanoma
[36] = system: HL-60(TB) leukemia
[37] = system: MDA-MB-435
[38] = system: SK-OV-3 ovarian
[39] = system: HCC-2998 colon
[40] = system: U251 CNS
[41] = system: BT-549 breast
[42] = system: SW-620 colon
[43] = system: MCF7 breast
[44] = system: DLD-1 colon
[45] = system: OVCAR-5 ovarian
[46] = system: ACHN renal
[47] = system: NCI-H226 lung
[48] = system: HOP-18 NSCLC
[49] = system: HOP-62 NSCLC
[50] = system: MDA-MB-231 breast
[51] = system: PC-3 prostate
[52] = system: UACC-62 melanoma
[53] = system: HT29 colon
[54] = system: RPMI-8226 leukemia
[55] = system: HS 578T breast
[56] = system: 786-0 renal
[57] = system: KM12 colon
[58] = system: MOLT-4 leukemia
[59] = system: IGROV1 ovarian
[60] = system: HCT-116 colon
[61] = system: UO-31 renal
[62] = system: SNB-19 CNS
[63] = system: CAKI-1 renal
[64] = system: SF-295 CNS
[65] = system: SK-MEL-5 melanoma
[66] = system: HOP-92 NSCLC
[67] = system: NCI-H522 lung

COC(=O)C12OCC34C(CC5C(C)=C(O)C(=O)CC5(C)C3C(O)C1O)OC(=O)C(OC(=O)C=C(C)C)C24 (configuration not stated)
> 460000 nM: TGI [3]
905 nM: TGI [37]
> 316000 nM: TGI [17]
> 79300 nM: TGI [44]
2030 nM: TGI [55]
> 8120 nM: TGI [4]
> 500000 nM: TGI [2] | TGI [5] | TGI [7] | TGI [8] | TGI [14] | TGI [15] | TGI [19] | TGI [23] | TGI [24] | TGI [25] | TGI [26] | TGI [27] | TGI [28] | TGI [29] | TGI [34] | TGI [36] | TGI [38] | TGI [40] | TGI [42] | TGI [43] | TGI [48] | TGI [49] | TGI [53] | TGI [54] | TGI [57] | TGI [58] | TGI [59] | TGI [62]
inactive: GI50 [10] > 500000 nM | GI50 [18] 456 nM | GI50 [22] 4340 nM | GI50 [61] 576 nM | GI50 [63] 899 nM
481 nM: TGI [20]
78.9 nM: TGI [1]
463 nM: TGI [46]
494000 nM: TGI [66]
90.5 nM: TGI [50]
> 476000 nM: TGI [6]
582 nM: TGI [31]
726 nM: TGI [41]
631 nM: TGI [51]
689 nM: TGI [56]
359 nM: TGI [13]
active: GI50 [7] 344 nM | GI50 [9] 320 nM | GI50 [11] 231 nM | GI50 [12] < 215 nM | GI50 [16] < 215 nM | GI50 [21] 231 nM | GI50 [30] < 215 nM | GI50 [32] < 215 nM | GI50 [33] 222 nM | GI50 [35] < 215 nM | GI50 [39] < 156 nM | GI50 [42] 231 nM | GI50 [45] 245 nM | GI50 [47] < 215 nM | GI50 [52] < 215 nM | GI50 [53] < 215 nM | GI50 [57] < 215 nM | GI50 [60] 226 nM | GI50 [62] < 215 nM | GI50 [64] 232 nM | GI50 [65] < 215 nM | GI50 [67] < 215 nM
